“Also recorded” adds a separate entry of the source. Where two headings read alike, the source gives them in different places.

Test [1] deals with NOD1. Briefly: iE-DAP-stimulated IL-8 release in 293/hNOD1 cells (HTRF). It is filed as cell-based, human. To be noted: 60 ng/mL iE-DAP. How it is done:
(§1) After 24 hours the amount of IL-8 secreted into the medium was determined by homogeneous time resolved fluorescence (HTRF) assay by the direct addition of a 1:1 mix of europium cryptate and XL665-conjugated anti-IL-8 antibodies according to the manufacturer's instructions (Cisbio).
On the technique in general: TR-FRET usually uses a lanthanide donor and a delayed reading to cut background.

The subject of test [2] is NOD1. The test can be described thus: Tri-DAP-stimulated IL-8 release in HCT116 cells (endogenous NOD1). It is filed as cell-based, human. How it is done: (§2) Compound activity on endogenous NOD1 and NOD2 receptors was determined by inhibition of either Tri-DAP or MDP-stimulated IL-8 release, respectively, using HCT116 human colon carcinoma cells. […] The cells were maintained in DMEM high glucose medium supplemented with 25 mM HEPES and 10% FBS. For assay, cells were seeded into 96 well plates (90,000 cells/well) in DMEM containing 1% FBS and pre-incubated with compounds for 1 hour before addition of either 1 μg/mL MDP or 25 μg/mL Tri-DAP. The level of IL-8 released into medium after 24-hour incubation was determined by HTRF assay as described above and fluorescence measured on an Envision model 2102 multilabel plate reader (Perkin Elmer).

Test [3] has as its system NOD2. Briefly: MDP-stimulated IL-8 release in HCT116 cells (endogenous NOD2). It is filed as cell-based, human. How it is done: as §2
A further test concerns TNFR1. Briefly: TNFα-stimulated (TNFR1-induced) IL-8 release in 293/hNOD2 cells. The test is classed as cell-based, human. Conditions: read-out: IC50 293/hNOD2 TNFα, IL-8 end-point, 20 ng/mL rhTNFα. How it is done: as §1
Another test concerns TLR2. Briefly: Pam2CSK4-stimulated IL-8 release in 293/hTLR2 cells. The test is classed as cell-based, human. To be noted: read-out: IC50 293/hTLR2 Pam2CSK4, IL-8 end-point, 3–10 ng/mL Pam2CSK4. How it is done: as §1
In the next test the test system is 300 human kinases. Briefly: Kinase panel profiling (Reaction Biology Corp). It is filed as biochemical. Conditions: compound at 1 μM; 10 μM ATP; any kinase of the panel. How it is done: The original hit compound identified as a selective inhibitor of the NOD2 pathway was profiled for inhibitory activity against 300 human kinases (Reaction Biology Corp). The compound was tested in duplicate at a single concentration (1 μM) and was pre-incubated with enzyme for 20 minutes prior to addition of 10 μM ATP.

Test [4] has as its system NOD2. The test can be described thus: Western blot of MAPK phosphorylation and IκBα in MDP-stimulated 293/hNOD2 cells. It is filed as cell-based, human. To be noted: GSK669 at 1 and 10 μM. How it is done:
(§3) Confluent cultures of 293/-hNOD1 and -hNOD2 cells in 24-well plates were serum-starved over-night. The next day, cells were pre-incubated for 1 hour with compound and then stimulated for 1 hour with either 50 μg/mL Tri-DAP or 25 μg/mL MDP, respectively. Whole cell lysates were prepared in 1X cell lysis buffer (Cell Signaling Technology) containing additional inhibitors of aspartic, cysteine and serine proteases and aminopeptidases (protease inhibitor cocktail set III, EMD Biosciences) and inhibitors of multiple phosphatases (phosphatase inhibitor cocktail sets II and III, Sigma-Aldrich). The levels of phosphorylated and total p38, JNK, ERK1/2 and total IκBα were determined by immunoblotting of ∼20 μg protein per sample using the following primary antibodies: phospho-p38 MAPK (12F8, #4631), p38 MAPK (#9212), phospho-JNK (#9251), JNK (#9252) and IκBα (#9242) all purchased from Cell Signaling Technology, and phospho-ERK1/2 (sc-7383) and ERK1/2 (sc-94) antibodies from Santa Cruz Biotechnology.

For test [5], the system named is NOD1. Briefly: Western blot of MAPK phosphorylation and IκBα in Tri-DAP-stimulated 293/hNOD1 cells. It is filed as cell-based, human. To be noted: GSK669 up to 30 μM. How it is done: as §3
Background: A western blot detects proteins with antibodies after separation by electrophoresis.

Test [6] concerns NOD2. The test can be described thus: IL-8 secretion induced by NOD2 over-expression (BacMam) in HEK293T cells, activator-independent. The test is classed as cell-based, human. How it is done: (§4) Over-expression of NOD1 and NOD2 was achieved by transduction of HEK293T cells with either NOD1 or NOD2 BacMam recombinant baculoviruses. […] The effect of compounds on activator-independent NOD1/2 signaling was determined by 30 minute pre-treatment of cells (in 96-well plates seeded the previous day in DMEM high glucose with 10% FBS at 60,000 cells/well) followed by infection with NOD1 or NOD2 BacMam virus (MOI = 50). IL-8 was measured in conditioned medium after 24 hour incubation at 37 °C. To determine the effect of compounds on NOD1/2 activator-dependent IL-8 secretion in BacMam transduced HEK293T, the cells were infected with virus for 6 hours (MOI = 50), and following the removal of virus the cells were cultured over-night. The next day medium was again replaced and cells pre-treated with compound for 30 minutes followed by stimulation with either MDP (30 ng/mL) or iE-DAP (300 ng/mL). IL-8 was measured in conditioned medium by HTRF after 24-hour incubation at 37 °C.

The test system of test [7] is NOD2. Briefly: MDP-stimulated IL-8 secretion in NOD2 BacMam transduced HEK293T cells. It is filed as cell-based, human. How it is done: as §4
A further test has as its system HCT116 cells. The test can be described thus: Uptake of MDP-rhodamine by HCT116 cells (fluorescence microscopy). Conditions: GSK669 up to 20 μM, chlorpromazine 20 μM, 1–4 hour. It is filed as cell-based, human. How it is done: HCT116 cells seeded onto glass cover-slips at low density were pre-treated with GSK669 or the endocytosis inhibitor chlorpromazine for 30 minutes before addition of 2.5 μg/mL MDP-rhodamine. Live cells were viewed periodically over 6-hours incubation at 37 °C using a Nikon eclipse TE2000-E fluorescent inverted microscope fitted with a CCTV camera and rhodamine filter.

The test system of test [8] is NOD2. The test can be described thus: MDP-stimulated cytokine release in primary human monocytes. The test is classed as cell-based. Conditions: primary human monocytes. How it is done:
[…] The concentration of IL-1β, IL-6 and TNFα in medium samples collected after 24-hour treatment was determined using the MS6000 human pro-inflammatory-4 II tissue culture kit (Meso Scale Discovery). The IL-8 concentration was determined by HTRF.

For `O=C(Cn1c(CCNC(=O)c2ccccc2)nc2ccccc21)Nc1ccc2c(c1)CCC2` [Compound 1, N-(2-(1-(2-((2,3-dihydro-1H-inden-5-yl)amino)-2-oxoethyl)-1H-benzo[d]imidazol-2-yl)ethyl)benzamide], the IC50 in the test with NOD1 [1] (Homo sapiens, read-out: IC50 293/hNOD1 iE-DAP, IL-8 end-point) is more than 30 µM; in the test with NOD1 [1] (read-out: IC50 293/hNOD1 iE-DAP, IL-8 end-point, listed as GSK669 (1)), more than 50 µM; with NOD1 [2] (Homo sapiens, HCT-116, IL-8 end-point, 25 μg/mL Tri-DAP) it was more than 50 µM; with NOD2 [3] (Homo sapiens, HCT-116, IL-8 end-point, 1 μg/mL MDP), 0.5 ± 0.2 µM; with TNFR1 (listed as GSK669) it was more than 30 µM; in the test with TNFR1 (listed as GSK669 (1)), more than 100 µM. The IC50 in the test on TLR2 (listed as GSK669) was more than 30 µM; with TLR2 (listed as GSK669 (1)), more than 80 µM; with NOD2 [7] (Homo sapiens, HEK-293T, 6 hours transduction, then MDP 30 ng/mL 24 hours, IL-8, read-out: IC50, MDP response in NOD2 transduced HEK293T cells), 0.5 µM. Also, the “effect on IL-8 secretion induced by Tri-DAP in HCT116 cells” value in the test on NOD1 [2] (Tri-DAP 25 μg/mL, 1 hour pre-treatment) is “had no effect”. Besides, the “effect on IL-8 secretion induced by MDP in HCT116 cells” value with NOD2 [3] (MDP 1 μg/mL, 1 hour pre-treatment) is “dose-dependently inhibited”. Further, the “inhibition of kinase activity, panel of 300 human kinases” value with 300 human kinases is not above 50%. Also, in the test on NOD2 [4], the “effect on MDP-induced p-p38, p-JNK and total IκBα” value was “prevented MDP-induced increases in p-p38 and p-JNK and MDP-induced reduction in total IκBα”. For the same compound, the “effect on Tri-DAP-induced p-p38, p-JNK and total IκBα” value in the test with NOD1 [5] is “inactive”. For the same compound, in the test with NOD2 [6] (MOI 50, 24 hours, GSK669 5 μM, IKK inhibitor 0.5 μM), the “effect on IL-8 secretion induced by NOD2 virus alone, single concentration” value is reported as “failed to block IL-8 secretion”. The “effect on IL-8 secretion induced by NOD2 over-expression” value in the test on NOD2 [6] (NOD2 virus 24 hours, GSK669 up to 50 μM) is listed as “failed to inhibit this response”. Also, the “effect on MDP response in NOD2 transduced cells, single concentration” value in the test with NOD2 [7] (HEK293T, 6 hours virus then MDP 30 ng/mL, GSK669 5 μM, IKK inhibitor 0.5 μM) is given as “selectively blocked the MDP response”. Besides, the “effect on uptake of Rhodamine-MDP into cells” value in the test with HCT116 cells is “unaffected; also recorded: does not block cellular uptake of MDP”. Also, in the test on NOD2 [8] (compound 5 μM, MDP 0.1 μg/mL, IL-1β, IL-6, IL-8, TNFα, 24 hours), the “effect on MDP-stimulated cytokine secretion, single concentration” value is reported as “partial inhibition”. Besides, the “effect on release of IL-8, IL-6, TNFα and IL-1β in monocytes stimulated with MDP” value in the test with NOD2 [8] (dose response) is reported as “dose-dependently inhibited”.

(Values after article PMC3731320, “Identification of Benzimidazole Diamides as Selective Inhibitors of the Nucleotide-Binding Oligomerization Domain 2 (NOD2) Signaling Pathway” (PLoS ONE, 2013).)
